Literature values, collected in patent publication US20080153788A1, “NOVEL COMPOSITION TO INCREASE MUSCLE STRENGTH” (ORAL DELIVERY TECHNOLOGIES, priority 2006, published 2008).

What was measured:
[1] = for injection
[2] = humans; prior-art description

Compound	solubility in oily media [1]	period over which concentration declines after the peak [2] [h]	time to concentration peak after administration [2] [min]
CCCCCCCCCCC(=O)O[C@H]1CC[C@H]2[C@H]3[C@H](CC[C@]12C)[C@H]1CCC(=O)C=C1C[C@H]3C [MENT undecanoate, (7α,17β)-7-methyl-17-[(1-α-oundecyl)oxy]estr-4en-3one]	good solubility	–	–
C[C@]12CC[C@H]3[C@@H](CCC4=CC(O)CC[C@@]43C)[C@@H]1CC[C@@H]2O (stereo partly drawn) [4-androstene-3,17β-diol]	–	3 to 4	≤ 90
